Measurements taken from ChEMBL document CHEMBL3779786, “Tabtoxinine--lactam is a stealth -lactam antibiotic that evades -lactamase-mediated antibiotic resistance” (Medchemcomm, 2016).
In brackets after ≈: the same amount, converted by molar mass. Activity calls are given as the source filed them. No cut-off for these calls is given here.

How the values were obtained:
Escherichia coli [1] = experiment: Antibacterial activity against Escherichia coli BL21(DE3) expressing beta lactamase TEM-64 in glutamine-free minimal media after 24 hrs by broth microdilution method; format: functional
Escherichia coli [2] = experiment: Antibacterial activity against Escherichia coli DH5alpha in glutamine-free minimal media after 24 hrs by broth microdilution method; format: functional; conditions: DH5[alpha]
Escherichia coli [3] = experiment: Antibacterial activity against Escherichia coli DH5alpha expressing beta lactamase KPC-3 in glutamine-free minimal media after 24 hrs by broth microdilution method; format: functional; conditions: DH5[alpha]
Escherichia coli [4] = experiment: Antibacterial activity against Escherichia coli BL21(DE3) expressing beta lactamase CTX-M-9 in glutamine-free minimal media after 24 hrs by broth microdilution method; format: functional
Escherichia coli [5] = experiment: Antibacterial activity against Escherichia coli DH5alpha expressing beta lactamase SHV-12 in glutamine-free minimal media after 24 hrs by broth microdilution method; format: functional; conditions: DH5[alpha]
Escherichia coli [6] = experiment: Antibacterial activity against Escherichia coli DH5alpha expressing beta lactamase TEM-1 in glutamine-free minimal media after 24 hrs by broth microdilution method; format: functional; conditions: DH5[alpha]
Escherichia coli [7] = experiment: Antibacterial activity against Escherichia coli DH5alpha expressing beta lactamase OXA-24/40 in glutamine-free minimal media after 24 hrs by broth microdilution method; format: functional; conditions: DH5[alpha]
Escherichia coli [8] = experiment: Antibacterial activity against Escherichia coli DH5alpha expressing beta lactamase NDM-1 in glutamine-free minimal media after 24 hrs by broth microdilution method; format: functional; conditions: DH5[alpha]
Escherichia coli [9] = experiment: Antibacterial activity against Escherichia coli BL21(DE3) expressing beta lactamase CTX-M-9 with no leader sequence in glutamine-free minimal media after 24 hrs by broth microdilution method; format: functional
Escherichia coli [10] = experiment: Antibacterial activity against Escherichia coli DH5alpha expressing beta lactamase CTX-M-15 in glutamine-free minimal media after 24 hrs by broth microdilution method; format: functional; conditions: DH5[alpha]
Escherichia coli [11] = experiment: Antibacterial activity against Escherichia coli BL21(DE3) expressing beta lactamase TEM-1 with no leader sequence in glutamine-free minimal media after 24 hrs by broth microdilution method; format: functional
Escherichia coli [12] = experiment: Antibacterial activity against Escherichia coli DH5alpha expressing beta lactamase SHV-5 in glutamine-free minimal media after 24 hrs by broth microdilution method; format: functional; conditions: DH5[alpha]
Escherichia coli [13] = experiment: Antibacterial activity against Escherichia coli DH5alpha expressing beta lactamase VIM-2 in glutamine-free minimal media after 24 hrs by broth microdilution method; format: functional; conditions: DH5[alpha]
Escherichia coli [14] = experiment: Antibacterial activity against Escherichia coli DH5alpha expressing beta lactamase TEM-24 in glutamine-free minimal media after 24 hrs by broth microdilution method; format: functional; conditions: DH5[alpha]
Escherichia coli [15] = experiment: Antibacterial activity against Escherichia coli BL21(DE3) in glutamine-free minimal media after 24 hrs by broth microdilution method; format: functional
Escherichia coli [16] = experiment: Antibacterial activity against Escherichia coli BL21(DE3) expressing beta lactamase TEM-1 in glutamine-free minimal media after 24 hrs by broth microdilution method; format: functional
[17] = Drug metabolism assessed as 2 nM Escherichia coli DH5alpha beta lactamase CTX-M-9 mediated formation of benzyl penicilloic acid at 1 mM after 30 mins by HPLC analysis; format: ADME; conditions: escherichia coli dh5[alpha], 0.5 h, 1000 µM
[18] = Drug metabolism assessed as 1 uM Escherichia coli DH5alpha beta lactamase TEM-1 mediated formation of benzyl penicilloic acid at 1 mM after 5 hrs by LCMS analysis; format: ADME; conditions: escherichia coli dh5[alpha], 1000 µM
[19] = Drug metabolism assessed as 1 uM Escherichia coli DH5alpha beta lactamase TEM-1 mediated formation of benzyl penicilloic acid at 1 mM after 5 hrs by HPLC analysis; format: ADME; conditions: escherichia coli dh5[alpha], 1000 µM
[20] = Drug metabolism assessed as 2 nM Escherichia coli DH5alpha beta lactamase CTX-M-9 mediated formation of benzyl penicilloic acid at 1 mM after 30 mins by LCMS analysis; format: ADME; conditions: escherichia coli dh5[alpha], 0.5 h, 1000 µM
[21] = Drug metabolism assessed as 1 uM Escherichia coli DH5alpha beta lactamase CTX-M-9 mediated formation of benzyl penicilloic acid at 1 mM after 5 hrs by HPLC analysis; format: ADME; conditions: escherichia coli dh5[alpha], 1000 µM
[22] = Drug metabolism assessed as 2 nM Escherichia coli DH5alpha beta lactamase TEM-1 mediated formation of benzyl penicilloic acid at 1 mM after 30 mins by HPLC analysis; format: ADME; conditions: escherichia coli dh5[alpha], 0.5 h, 1000 µM
[23] = Drug metabolism assessed as 1 uM Escherichia coli DH5alpha beta lactamase CTX-M-9 mediated formation of benzyl penicilloic acid at 1 mM after 5 hrs by LCMS analysis; format: ADME; conditions: escherichia coli dh5[alpha], 1000 µM
[24] = Drug metabolism assessed as 2 nM Escherichia coli DH5alpha beta lactamase TEM-1 mediated formation of benzyl penicilloic acid at 1 mM after 30 mins by LCMS analysis; format: ADME; conditions: escherichia coli dh5[alpha], 0.5 h, 1000 µM
[25] = Drug metabolism assessed as 2 nM Escherichia coli DH5alpha beta lactamase TEM-1 mediated metabolite formation at 1 mM after 30 mins by LCMS analysis; format: ADME; conditions: escherichia coli dh5[alpha], 0.5 h, 1000 µM
Escherichia coli [26] = experiment: Antibacterial activity against Escherichia coli ATCC 25922 in glutamine-free minimal media after 24 hrs by broth microdilution method; format: functional; conditions: ATCC 25922, 24 h
[27] = Drug metabolism assessed as 1 uM Escherichia coli DH5alpha beta lactamase CTX-M-9 mediated metabolite formation at 1 mM after 5 hrs by HPLC analysis; format: ADME; conditions: escherichia coli dh5[alpha], 1000 µM
[28] = Drug metabolism assessed as 2 nM Escherichia coli DH5alpha beta lactamase CTX-M-9 mediated metabolite formation at 1 mM after 30 mins by HPLC analysis; format: ADME; conditions: escherichia coli dh5[alpha], 0.5 h, 1000 µM
[29] = Drug metabolism assessed as 2 nM Escherichia coli DH5alpha beta lactamase CTX-M-9 mediated metabolite formation at 1 mM after 30 mins by LCMS analysis; format: ADME; conditions: escherichia coli dh5[alpha], 0.5 h, 1000 µM
[30] = Drug metabolism assessed as 1 uM Escherichia coli DH5alpha beta lactamase TEM-1 mediated metabolite formation at 1 mM after 5 hrs by HPLC analysis; format: ADME; conditions: escherichia coli dh5[alpha], 1000 µM
[31] = Drug metabolism assessed as 1 uM Escherichia coli DH5alpha beta lactamase TEM-1 mediated metabolite formation at 1 mM after 5 hrs by LCMS analysis; format: ADME; conditions: escherichia coli dh5[alpha], 1000 µM
[32] = Drug metabolism assessed as 2 nM Escherichia coli DH5alpha beta lactamase TEM-1 mediated metabolite formation at 1 mM after 30 mins by HPLC analysis; format: ADME; conditions: escherichia coli dh5[alpha], 0.5 h, 1000 µM
[33] = Drug metabolism assessed as 1 uM Escherichia coli DH5alpha beta lactamase CTX-M-9 mediated metabolite formation at 1 mM after 5 hrs by LCMS analysis; format: ADME; conditions: escherichia coli dh5[alpha], 1000 µM
[34] = Drug level assessed as 2 nM Escherichia coli DH5alpha beta lactamase TEM-1 mediated compound formation treated with benzyl penicillin at 1 mM after 30 mins by HPLC analysis; format: ADME; conditions: escherichia coli dh5[alpha], 0.5 h, 1000 µM
[35] = Drug level assessed as 1 uM Escherichia coli DH5alpha beta lactamase CTX-M-9 mediated compound formation treated with benzyl penicillin at 1 mM after 5 hrs by LCMS analysis; format: ADME; conditions: escherichia coli dh5[alpha], 1000 µM
[36] = Drug level assessed as 2 nM Escherichia coli DH5alpha beta lactamase CTX-M-9 mediated compound formation treated with benzyl penicillin at 1 mM after 30 mins by HPLC analysis; format: ADME; conditions: escherichia coli dh5[alpha], 0.5 h, 1000 µM
[37] = Drug level assessed as 2 nM Escherichia coli DH5alpha beta lactamase CTX-M-9 mediated compound formation treated with benzyl penicillin at 1 mM after 30 mins by LCMS analysis; format: ADME; conditions: escherichia coli dh5[alpha], 0.5 h, 1000 µM
[38] = Drug level assessed as 1 uM Escherichia coli DH5alpha beta lactamase TEM-1 mediated compound formation treated with benzyl penicillin at 1 mM after 5 hrs by HPLC analysis; format: ADME; conditions: escherichia coli dh5[alpha], 1000 µM
[39] = Drug level assessed as 1 uM Escherichia coli DH5alpha beta lactamase CTX-M-9 mediated compound formation treated with benzyl penicillin at 1 mM after 5 hrs by HPLC analysis; format: ADME; conditions: escherichia coli dh5[alpha], 1000 µM
[40] = Drug level assessed as 1 uM Escherichia coli DH5alpha beta lactamase TEM-1 mediated compound formation treated with benzyl penicillin at 1 mM after 5 hrs by LCMS analysis; format: ADME; conditions: escherichia coli dh5[alpha], 1000 µM
[41] = Drug level assessed as 2 nM Escherichia coli DH5alpha beta lactamase TEM-1 mediated compound formation treated with benzyl penicillin at 1 mM after 30 mins by LCMS analysis; format: ADME; conditions: escherichia coli dh5[alpha], 0.5 h, 1000 µM
Escherichia coli [42] = experiment: Bactericidal activity against Escherichia coli; format: functional, organism-based
Escherichia coli [43] = experiment: Antibacterial activity against Escherichia coli in glutamine containing nutrient broth at 0.06 to 128 uM; format: functional, organism-based
Staphylococcus aureus = experiment: Bacteriostatic activity against Staphylococcus aureus in glutamine-free minimal media; format: functional, organism-based

| Compound | MIC90 (Escherichia coli [1]) | MIC90 (Escherichia coli [2]) | MIC90 (Escherichia coli [3]) | MIC90 (Escherichia coli [4]) | MIC90 (Escherichia coli [5]) | MIC90 (Escherichia coli [6]) | MIC90 (Escherichia coli [7]) | MIC90 (Escherichia coli [8]) | MIC90 (Escherichia coli [9]) | MIC90 (Escherichia coli [10]) | MIC90 (Escherichia coli [11]) | MIC90 (Escherichia coli [12]) | MIC90 (Escherichia coli [13]) | MIC90 (Escherichia coli [14]) | MIC90 (Escherichia coli [15]) | MIC90 (Escherichia coli [16]) | Drug metabolism [25] | Drug metabolism [27] | Drug metabolism [28] | Drug metabolism [29] | other results |
| --- | --- | --- | --- | --- | --- | --- | --- | --- | --- | --- | --- | --- | --- | --- | --- | --- | --- | --- | --- | --- | --- |
| GENTAMICIN | 1.4 µM | 0.25 µM | 0.5 µM | 1.4 µM | 0.5 µM | 1 µM | 0.5 µM | 1 µM | 1.4 µM | 1 µM | 1.4 µM | < 0.25 µM | 1 µM | 0.5 µM | 1.4 µM | 1.4 µM |  |  |  |  |  |
| CC1(C)S[C@@H]2[C@H](NC(=O)Cc3ccccc3)C(=O)N2[C@H]1C(=O)O [PENICILLIN G] | > 128 µM |  |  | 128 µM (≈ 42.8 µg/mL) |  |  |  |  | 128 µM (≈ 42.8 µg/mL) |  | > 128 µM |  |  |  | 4 µM (≈ 1.34 µg/mL) | > 128 µM |  |  |  |  | Drug metabolism [17]: metabolite_detected; Drug metabolism [18]: metabolite_detected; Drug metabolism [19]: metabolite_detected; Drug metabolism [20]: metabolite_detected; Drug metabolism [21]: metabolite_detected; Drug metabolism [22]: metabolite_detected; Drug metabolism [23]: metabolite_detected; Drug metabolism [24]: metabolite_detected |
| CC1(C)S[C@@H]2[C@H](NC(=O)[C@H](N)c3ccccc3)C(=O)N2[C@H]1C(=O)O [AMPICILLIN] | > 128 µM | 2 µM (≈ 0.699 µg/mL) | > 128 µM | 128 µM (≈ 44.7 µg/mL) | > 128 µM | > 128 µM | > 128 µM | > 128 µM | 128 µM (≈ 44.7 µg/mL) | > 128 µM | > 128 µM | > 128 µM | > 128 µM | > 128 µM | 0.5 µM (≈ 0.175 µg/mL) | > 128 µM |  |  |  |  |  |
| N[C@@H](CC[C@]1(O)CNC1=O)C(=O)O |  |  |  |  |  |  |  |  |  |  |  |  |  |  |  |  | metabolite_detected | metabolite_detected | metabolite_detected | metabolite_detected | MIC90 (Escherichia coli [26]): > 128 µM; Drug metabolism [30]: metabolite_detected; Drug metabolism [31]: metabolite_detected; Drug metabolism [32]: metabolite_detected; Drug metabolism [33]: metabolite_detected |
| CC1(C)S[C@H]([C@H](NC(=O)Cc2ccccc2)C(=O)O)N[C@H]1C(=O)O |  |  |  |  |  |  |  |  |  |  |  |  |  |  |  |  |  |  |  |  | Drug metabolism [34]: metabolite_detected; Drug metabolism [35]: metabolite_detected; Drug metabolism [36]: metabolite_detected; Drug metabolism [37]: metabolite_detected; Drug metabolism [38]: metabolite_detected; Drug metabolism [39]: metabolite_detected; Drug metabolism [40]: metabolite_detected; Drug metabolism [41]: metabolite_detected |
| C[C@@H](O)[C@H](NC(=O)[C@@H](N)CC[C@]1(O)CNC1=O)C(=O)O | 16 µM (≈ 4.63 µg/mL) | 0.5 µM (≈ 0.145 µg/mL) | 0.5 µM (≈ 0.145 µg/mL) | 4 µM (≈ 1.16 µg/mL) | 0.25 µM (≈ 0.0723 µg/mL) | 0.25 µM (≈ 0.0723 µg/mL) | 2 µM (≈ 0.579 µg/mL) | 0.5 µM (≈ 0.145 µg/mL) | 8 µM (≈ 2.31 µg/mL) | 0.125 µM (≈ 0.0362 µg/mL) | 16 µM (≈ 4.63 µg/mL) | < 0.031 µM | 2 µM (≈ 0.579 µg/mL) | 0.0625 µM (≈ 0.0181 µg/mL) | 8 µM (≈ 2.31 µg/mL) | 4 µM (≈ 1.16 µg/mL) | metabolite_detected | metabolite_detected | metabolite_detected | metabolite_detected | Activity (Escherichia coli [42]): inactive; Activity (Escherichia coli [43]): inactive; Drug metabolism [30]: metabolite_detected; Activity (Staphylococcus aureus): Active; Drug metabolism [31]: metabolite_detected; Drug metabolism [32]: metabolite_detected; Drug metabolism [33]: metabolite_detected |
